Assay results reported in patent publication US5776892A, “Anti-inflammatory peptides” (Curative Health Services, Inc., priority 1994, dated 1998).
“And” between values parts separate entries of the source, which are not always exact repeats. Identical values can stand only once. No end group written: not given here.

Tested on: arachidonic acid induced inflammation in mouse ear
Experiment: Mouse ear model, arachidonic acid (AA) induced inflammation, ear thickness
Assay type: in vivo
Conditions: for % Reduction of Ear Swelling / Ear Thickness: Table I, sc Alzet minipump
Procedure: The anti-inflammatory properties of CT-112 (SEQ. ID NO: 1) were assessed using a standardized assay for anti-inflammatory activity, i.e., the mouse ear model in which arachidonic acid (AA) is used to induce an inflammatory reaction (Young et al., 1984, J. Invest. Dermatol. 82:367-371; Doherty, et al., 1988, J. Invest. Dermatol. 91:298-302).
Female mice (C57BL/6UAF, Charles River Breeding Laboratories, approximately 15-18 g) were obtained and acclimated for 2 weeks prior to use. The animals were approximately 14 weeks old at the start of the study.
To prepare minipumps for implantation, CT-112 (SEQ. ID NO: 1) was dissolved in PBS. The material was loaded into Alzet minipumps set to deliver 0.05 (5 animals), 0.1 (10 animals), 1 (10 animals), or 2.5 (5 animals) mg of CT-112 (SEQ. ID NO: 1) per animal per day. Minipumps for implantation into control animals contained only PBS. As a positive control, one set of 10 mice received 100 mg/kg of phenidone, a potent 5-lipoxygenase inhibitor which acts as an anti-inflammatory agent, 15 min prior to challenge with AA.
For subcutaneous implantation of minipumps, animals were anesthetized with Ketamine/Xylazine. The Ketamine (Aveco Lot #440140) was injected at 80 mg/kg and the Xylazine (Rugby Laboratories Lot #26040-B) at 16 mg/kg and the Alzet pumps were implanted subcutaneously in the dorsothoracic area. Animals were allowed to recover and then housed and given food and water ad libitum for 5 days.
On the sixth day following pump implantation, 0.01 ml of AA was applied to the inner and outer surfaces of the right ear by means of an automatic microliter pipette. One hr following AA application, the mice were sacrificed and ear thickness was measured with a Mitutoyo No. 7300 Gauge Caliper. The left ears were also measured as an internal control.
Mice were implanted with Alzet mini-pumps set to deliver 60 mg/kg/day for either 7, 3, or 1 days. A separate group of 5 mice received 3 intraperitoneal injections of CT-112 (60 mg/kg/injection) at 24, 1 and 0.25 hr prior to AA challenge. CT-112 (SEQ. ID NO: 1) was prepared for injection by dissolving the compound in Dulbecco's PBS to give a final CT-112 (SEQ. ID NO: 1) concentration of 5 mg/ml. The control mice were implanted with Alzet minipumps that delivered PBS for 7 days. The AA challenge was the same as described supra in Example 7.
Administration of CT-112 (SEQ. ID NO: 1) (60 mg/kg/injection) via multiple intraperitoneal injections was performed at the following times prior to AA challenge:
In addition, the effect of a single administration of CT-112 (SEQ. ID NO: 1) (60 mg/kg) by intraperitoneal injection was performed at either 1 or 3 hr prior to AA challenge. Control mice had Alzet minipumps implanted to deliver PBS for 7 days prior to AA challenge. The AA challenge was the same as described supra in Example 7. The results of the multiple dosing regimens and the 1 hr and 3 hr single dosing regimens were compared to the anti-inflammatory activity of CT-112 (SEQ. ID NO: 1) delivered via Alzet minipump set to deliver 60 mg/kg/day for 7 days using 5 animals per treatment.
In a separate experiment, the effect of multiple intraperitoneal injections of CT-112 (SEQ. ID NO: 1) at either 6, 3, 1 and 0.25 hr, or 16, 3, 1 and 0.25 hr prior to AA challenge was assessed. The results of both multi-dosing regimens were compared to both phenidone (100 mg/kg administered 15 min prior to AA challenge) and CT-112 (SEQ. ID NO: 1) administered via Alzet mini-pump (60 mg/kg/day for 7 days). For this latter study, the number of animals receiving the single injection of CT-112 (SEQ. ID NO: 1) was increased from 5 to 10.
Administration to mice of CT-112 (SEQ. ID NO: 1) (60 mg/kg/injection) via multiple subcutaneous injections prior to AA challenge was performed at:
In addition, other mice received only a single subcutaneous injection of CT-112 (SEQ. ID NO: 1) (60 mg/kg) at either 3 or 1 hr prior to AA challenge. […]

[1] = Table III, 1-day pump, 60 mg/kg/day
[2] = Table III, 3-day pump, 60 mg/kg/day
[3] = Table III, 7-day pump, 60 mg/kg/day
[4] = Table III, ip 60 mg/kg/injection at 24, 1, 0.25 hr prior to AA
[5] = Table IV, 7-day pump, 60 mg/kg/day
[6] = Table IV, ip 60 mg/kg/injection at 1, 0.25 hr prior to AA
[7] = Table IV, ip 60 mg/kg/injection at 3, 1, 0.25 hr prior to AA
[8] = Table IV, ip 60 mg/kg/injection at 6, 3, 1, 0.25 hr prior to AA
[9] = Table IV, single ip 60 mg/kg 3 hr prior to AA
[10] = Table V, 7-day pump, 60 mg/kg/day
[11] = Table V, ip at 6, 3, 1, 0.25 hr prior to AA
[12] = Table V, ip at 16, 3, 1, 0.25 hr prior to AA
[13] = Table VI, 7-day pump, 60 mg/kg/day
[14] = Table VI, sc 60 mg/kg/injection at 1, 0.25 hr prior to AA
[15] = Table VI, sc 60 mg/kg/injection at 3, 1, 0.25 hr prior to AA
[16] = Table VI, sc 60 mg/kg/injection at 6, 3, 1, 0.25 hr prior to AA
[17] = Table VI, single sc 60 mg/kg 1 hr prior to AA
[18] = Table VI, single sc 60 mg/kg 3 hr prior to AA
[19] = Table VII, 3 day pump, 60 mg/kg/day
[20] = Table VII, single ip 3 hr prior to AA
[21] = Table VII, single sc 0.25 hr prior to AA
[22] = Table VII, single sc 1 hr prior to AA
[23] = Table VII, single sc 3 hr prior to AA
[24] = Table VII, single sc 6 hr prior to AA
[25] = Table VIII, 3 day pump, 60 mg/kg/day
[26] = Table VIII, po 200 mg/kg/gavage at 1, 0.25 hr prior to AA
[27] = Table VIII, po 200 mg/kg/gavage at 6, 3, 1, 0.25 hr prior to AA
[28] = Table VIII, single po 200 mg/kg 1 hr prior to AA
[29] = Table VIII, single po 200 mg/kg 3 hr prior to AA
[30] = Table XI, 60 mg/kg/day minipump, 3 days

TTSQVRPR [CT-112, octapeptide derived from platelet factor 4]
% Reduction of Ear Swelling (0.05 mg/animal/day): 43.1%
Ear Thickness (0.05 mg/animal/day, AA on day 6): 0.01577 ± 0.00155 in
% Reduction of Ear Swelling (0.1 mg/animal/day): 43.1%
Ear Thickness (0.1 mg/animal/day): 0.01577 ± 0.00191 in
% Reduction of Ear Swelling (1.0 mg/animal/day): 89.0%
Ear Thickness (1.0 mg/animal/day): 0.01128 ± 0.00291 in
% Reduction of Ear Swelling (2.5 mg/animal/day): 95.6%
Ear Thickness (2.5 mg/animal/day): 0.0106 ± 0.00175 in
% Inhibition of Inflammation [1]: 112%
Thickness Difference (Left-Right) [1]: -0.00074 ± 0.00119 in
% Inhibition of Inflammation [2]: 119%
Thickness Difference (Left-Right) [2]: -0.00115 ± 0.00058 in
% Inhibition of Inflammation [3]: 108%
Thickness Difference (Left-Right) [3]: -0.00051 ± 0.00116 in
% Inhibition of Inflammation [4]: 62%
Thickness Difference (Left-Right) [4]: 0.00226 ± 0.00124 in
% Inhibition of Inflammation [5]: 94% and 93.9%
Thickness Difference (Left-Right) [5]: 0.00033 ± 0.00065 in
% Inhibition of Inflammation [6]: 64.4%
Thickness Difference (Left-Right) [6]: 0.00192 ± 0.00148 in
% Inhibition of Inflammation [7]: 73.8%
Thickness Difference (Left-Right) [7]: 0.00141 ± 0.00138 in
% Inhibition of Inflammation [8]: 73.2%
Thickness Difference (Left-Right) [8]: 0.00144 ± 0.00126 in
Thickness Difference (Left-Right) (Table IV, single ip 60 mg/kg 1 hr prior to AA): 0.00308 ± 0.00189 in
% Inhibition of Inflammation (Table IV, single ip 60 mg/kg 1 hr prior to AA, 60 mg/kg): 43% and 42.9%
% Inhibition of Inflammation [9]: 78.5%
Thickness Difference (Left-Right) [9]: 0.00116 ± 0.001 in
% Inhibition of Inflammation [10]: 100.5%
Thickness Difference (Left-Right) [10]: -0.00003 ± 0.0012 in
% Inhibition of Inflammation [11]: 61.4%
Thickness Difference (Left-Right) [11]: 0.00249 ± 0.0017 in
% Inhibition of Inflammation [12]: 56.3%
Thickness Difference (Left-Right) [12]: 0.00283 ± 0.00218 in
% Inhibition of Inflammation [13]: 87% and 86.5%
Thickness Difference (Left-Right) [13]: 0.00083 ± 0.00084 in
% Inhibition of Inflammation [14]: 68.4%
Thickness Difference (Left-Right) [14]: 0.00195 ± 0.00131 in
% Inhibition of Inflammation [15]: 68.7%
Thickness Difference (Left-Right) [15]: 0.00193 ± 0.0007 in
% Inhibition of Inflammation [16]: 76.2%
Thickness Difference (Left-Right) [16]: 0.00147 ± 0.00041 in
% Inhibition of Inflammation [17]: 71.8%
Thickness Difference (Left-Right) [17]: 0.00174 ± 0.00128 in
% Inhibition of Inflammation [18]: 65.5%
Thickness Difference (Left-Right) [18]: 0.00213 ± 0.00089 in
% Inhibition of Inflammation [19]: 67.0%
Thickness Difference (Left-Right) [19]: 0.00127 ± 0.00128 in
% Inhibition of Inflammation [20]: 37.2%
Thickness Difference (Left-Right) [20]: 0.00242 ± 0.00187 in
% Inhibition of Inflammation [21]: 34.7%
Thickness Difference (Left-Right) [21]: 0.00252 ± 0.00128 in
% Inhibition of Inflammation [22]: 44.5%
Thickness Difference (Left-Right) [22]: 0.00214 ± 0.00122 in
% Inhibition of Inflammation [23]: 36.9%
Thickness Difference (Left-Right) [23]: 0.00243 ± 0.00107 in
% Inhibition of Inflammation [24]: 69.6%
Thickness Difference (Left-Right) [24]: 0.00117 ± 0.00066 in
% Inhibition of Inflammation [25]: 88% and 88.4%
Thickness Difference (Left-Right) [25]: 0.00058 ± 0.00086 in
% Inhibition of Inflammation [26]: 51.9%
Thickness Difference (Left-Right) [26]: 0.00241 ± 0.00124 in
Thickness Difference (Left-Right) (Table VIII, po 200 mg/kg/gavage at 3, 1, 0.25 hr prior to AA): 0.0028 ± 0.00114 in
% Inhibition of Inflammation (Table VIII, po 200 mg/kg/gavage at 3, 1, 0.25 hr prior to AA, 200 mg/kg): 44% and 44.1%
% Inhibition of Inflammation [27]: 73.3%
Thickness Difference (Left-Right) [27]: 0.00134 ± 0.00257 in
% Inhibition of Inflammation [28]: 72.3%
Thickness Difference (Left-Right) [28]: 0.00139 ± 0.00122 in
% Inhibition of Inflammation [29]: 93.8%
Thickness Difference (Left-Right) [29]: 0.00031 ± 0.00198 in
% Inhibition of Inflammation (Table XI, 6 mg/kg/day minipump, 3 days): 40.8%
Thickness Difference (Left-Right) (Table XI, 6 mg/kg/day minipump, AA 3 days after implantation): 0.00381 ± 0.00066 in
% Inhibition of Inflammation [30]: 85.2%
Thickness Difference (Left-Right) [30]: 0.00095 ± 0.00064 in
Thickness Difference (Left-Right) (Table XIII, 60 mg/kg/day via Alzet pump for 24 hr): 0.00132 ± 0.00086 in
Thickness Difference (Left-Right) (Table XIV, 60 mg/kg/day via Alzet pump for 24 hr): 0.00134 ± 0.00044 in
Thickness Difference (Left-Right) (Table XV, 60 mg/kg/day via Alzet pump for 24 hr): 0.00154 ± 0.00092 in
% Inhibition (Table XVI, single 6 mg/kg sc 4 hr prior to AA, ear thickness 1 hr post-challenge): 64.9%
duration of activity (after single subcutaneous injection): greater than 6 hr
inhibition of the inflammatory process (ip 60 mg/kg/injection, all multi-dosing regimens and the 3 hr single dosing regimen): approximately 70%
reduction in inflammation (multiple ip injections at either 6, 3, 1, 0.25 hr or 16, 3, 1, 0.25 hr prior to AA): 56-61%
inhibition of the inflammatory process (oral 200 mg/kg/gavage, all multi- and single-dosing regimens except 3, 1, 0.25 hr): 52-94%
